This note sets out measurements from patent US10604535B2, “Compounds, compositions and methods” (Denali Therapeutics Inc., priority 2016, dated 2020).

In general, IC50 refers to the concentration needed to halve the response being measured.

Assay [1] deals with GST-hRIPK1 (8-327) (Homo sapiens (Human), UniProt Q13546). Kind of assay: Fluorescent Polarization Binding (FP Binding) assay.
Assay [2] relates to FADD-deficient Jurkat cells. Description: Cellular necroptosis assay (human TNFα-induced necrosis, CellTiter-Glo). Format: cell-based. The note with it: Homo sapiens, Jurkat, 48 h, read-out: Cell IC50. (Cellular ATP, detected with luciferase, serves as a proxy for viable cell number.)

Each structure is given as a SMILES string. Read-outs that look alike come from different tables or passages of the source.

Sequence of GST-hRIPK1 (8-327) (Q13546 8-327): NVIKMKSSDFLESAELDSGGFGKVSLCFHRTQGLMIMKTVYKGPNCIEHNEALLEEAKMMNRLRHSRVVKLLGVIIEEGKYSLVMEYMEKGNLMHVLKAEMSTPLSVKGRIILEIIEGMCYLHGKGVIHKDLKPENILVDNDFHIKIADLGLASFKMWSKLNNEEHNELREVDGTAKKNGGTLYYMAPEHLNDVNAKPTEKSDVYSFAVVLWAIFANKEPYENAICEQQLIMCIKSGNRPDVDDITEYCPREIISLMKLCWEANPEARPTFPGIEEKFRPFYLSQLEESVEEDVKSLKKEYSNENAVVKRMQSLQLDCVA

Regarding `CN1C(=O)[C@@H](NC(=O)c2nnc(Cc3ccccc3)o2)C2(CC2)Oc2cccnc21` [Example 160A, (S)-5-benzyl-N-(5′-methyl-4′-oxo-4′,5′-dihydro-3′H-spiro[cyclopropane-1,2′-pyrido[3,2-b][1,4]oxazepin]-3′-yl)-1,3,4-oxadiazole-2-carboxamide], the IC50 in assay [1] and in assay [2] (TNFα 10 ng/mL) was 0.0001 to 1 µM throughout.

Regarding `C[C@H]1Oc2cccnc2N(C)C(=O)[C@H]1NC(=O)c1ncc(Cc2ccccc2)o1` [Example 192, 5-benzyl-N-((2R,3S)-2,5-dimethyl-4-oxo-2,3,4,5-tetrahydropyrido[3,2-b][1,4]oxazepin-3-yl)oxazole-2-carboxamide], the IC50 in assay [1] and in assay [2] (TNFα 10 ng/mL) was 0.0001 to 1 µM each time.

Turning to `O=C(NC1COc2cccnc2-n2ccnc21)c1nn(Cc2ccccc2)cc1F` (stereo in doubt) [Example 154B, (S)-1-benzyl-N-(6,7-dihydroimidazo[1,2-d]pyrido[3,2-b][1,4]oxazepin-7-yl)-4-fluoro-1H-pyrazole-3-carboxamide], the IC50 in assay [1] and in assay [2] (TNFα 10 ng/mL) was 0.0001 to 1 µM throughout.

`C[C@H]1Oc2cccnc2N(C)C(=O)[C@H]1NC(=O)c1cc(Cc2ccccc2)no1` [Example 122, 3-benzyl-N-((2R,3S)-2,5-dimethyl-4-oxo-2,3,4,5-tetrahydropyrido[3,2-b]oxazepin-3-yl)isoxazole-5-carboxamide]: the IC50 in assay [1] and in assay [2] (TNFα 10 ng/mL) was 0.0001 to 1 µM each time.

For `CN1C(=O)[C@@H](NC(=O)c2nn(Cc3ccccc3)cc2F)CCc2c1cnn2C` [Example 114A, (S)-1-benzyl-N-(1,4-dimethyl-5-oxo-1,4,5,6,7,8-hexahydropyrazolo[4,3-b]azepin-6-yl)-4-fluoro-1H-pyrazole-3-carboxamide], the IC50 in assay [1] and in assay [2] (TNFα 10 ng/mL) was 0.0001 to 1 µM throughout.

Consider `CN1C(=O)[C@@H](NC(=O)c2nn(Cc3cc(F)cc(C#N)c3)cc2F)COc2cccnc21` [Example 130, (S)-1-(3-Cyano-5-fluorobenzyl)-4-fluoro-N-(5-methyl-4-oxo-2,3,4,5-tetrahydropyrido[3,2-b][1,4]oxazepin-3-yl)-1H-pyrazole-3-carboxamide], for which the IC50 in assay [1] and in assay [2] (TNFα 10 ng/mL) was 0.0001 to 1 µM in each case.

On to `CN1C(=O)[C@@H](NC(=O)c2nc(F)c(Cc3ccccc3)s2)COc2cccnc21` [Example 126, (S)-5-benzyl-4-fluoro-N-(5-methyl-4-oxo-2,3,4,5-tetrahydropyrido[3,2-b][1,4]oxazepin-3-yl)thiazole-2-carboxamide], for which the IC50 in assay [1] and in assay [2] (TNFα 10 ng/mL) was 0.0001 to 1 µM each time.

As for `CN1C(=O)[C@@H](NC(=O)c2nnc(Cc3ccccc3)[nH]2)CC2(CC2)c2cccnc21` [Example 125B, (S)-5-benzyl-N-(9′-methyl-8′-oxo-6′,7′,8′,9′-tetrahydrospiro[cyclopropane-1,5′-pyrido[2,3-b]azepin]-7′-yl)-4H-1,2,4-triazole-3-carboxamide], the IC50 in assay [1] and in assay [2] (TNFα 10 ng/mL) was 0.0001 to 1 µM throughout.

As for `CN1C(=O)[C@@H](NC(=O)c2ncc(C3(c4ccccc4)CC3)[nH]2)COc2cccnc21` [Example 99, (S)—N-(5-methyl-4-oxo-2,3,4,5-tetrahydropyrido[3,2-b][1,4]oxazepin-3-yl)-5-(1-phenylcyclopropyl)-1H-imidazole-2-carboxamide], the IC50 in assay [1] fell in the range of 1 to 10 µM; in assay [2] (TNFα 10 ng/mL), 0.0001 to 1 µM.

Regarding `CN1C(=O)[C@@H](NC(=O)c2ncc(Cc3cccc(C#N)c3)s2)COc2ccccc21` [Example 164, (S)-5-(3-cyanobenzyl)-N-(5-methyl-4-oxo-2,3,4,5-tetrahydrobenzo[b][1,4]oxazepin-3-yl)thiazole-2-carboxamide], the concentration for half-maximal inhibition (IC50) in assay [1] and in assay [2] (TNFα 10 ng/mL) was 0.0001 to 1 µM each time.

With `O=C(N[C@@H]1C(=O)Nc2ncccc2[C@@H]2C[C@H]12)c1nnc(Cc2ccccc2)[nH]1` [Example 110B, 5-benzyl-N-((1aS,2S,8bR)-3-oxo-1,1a,2,3,4,8b-hexahydrocyclopropa[d]pyrido[2,3-b]azepin-2-yl)-4H-1H-1,2,4-triazole-3-carboxamide], the IC50 in assay [1] and in assay [2] (TNFα 10 ng/mL) was 0.0001 to 1 µM each time.

`CN1C(=O)[C@@H](NC(=O)c2nn(Cc3cccc(C#N)c3)cc2F)COc2cccnc21` [Example 144, (S)-1-(3-cyanobenzyl)-4-fluoro-N-(5-methyl-4-oxo-2,3,4,5-tetrahydropyrido[3,2-b][1,4]oxazepin-3-yl)-1H-pyrazole-3-carboxamide]: the IC50 in assay [1] and in assay [2] (TNFα 10 ng/mL) was 0.0001 to 1 µM in each case.

Take `CN1C(=O)[C@@H](NC(=O)c2nnc(C3CCc4ccccc43)[nH]2)COc2ccccc21` (stereo partly drawn) [Example 51, 5-(2,3-dihydro-1H-inden-1-yl)-N—((S)-5-methyl-4-oxo-2,3,4,5-tetrahydrobenzo[b][1,4]oxazepin-3-yl)-4H-1,2,4-triazole-3-carboxamide]: the IC50 in assay [1] and in assay [2] (TNFα 10 ng/mL) was 0.0001 to 1 µM each time.

For `C[C@H]1Oc2cccnc2N(C)C(=O)[C@H]1NC(=O)c1nn(Cc2ccccc2)cc1Cl` [Example 132, 1-Benzyl-4-chloro-N-((2R,3S)-2,5-dimethyl-4-oxo-2,3,4,5-tetrahydropyrido[3,2-b][1,4]oxazepin-3-yl)-1H-pyrazole-3-carboxamide], the IC50 in assay [1] and in assay [2] (TNFα 10 ng/mL) was 0.0001 to 1 µM in each case.

Turning to `C[C@H]1Oc2cccnc2N(C)C(=O)[C@H]1NC(=O)c1cc(Cc2ccccc2)on1` [Example 112, 5-benzyl-N-((2R,3S)-2,5-dimethyl-4-oxo-2,3,4,5-tetrahydropyrido[3,2-b][1,4]oxazepin-3-yl)isoxazole-3-carboxamide], the IC50 in assay [1] and in assay [2] (TNFα 10 ng/mL) was 0.0001 to 1 µM each time.

For `CN1C(=O)[C@@H](NC(=O)c2cc(Cc3ccccc3)on2)C2CC2c2ccccc21` (stereo partly drawn) [Example 7, 5-benzyl-N-((2S)-4-methyl-3-oxo-1,1a,2,3,4,8b-hexahydrobenzo[b]cyclopropa[d]azepin-2-yl)isoxazole-3-carboxamide], the half-inhibitory concentration (IC50) in assay [1] and in assay [2] (TNFα 10 ng/mL) was 0.0001 to 1 µM throughout.

Regarding `Cc1nc2c(s1)CC[C@H](NC(=O)c1nnc(Cc3ccccc3)[nH]1)C(=O)N2C` [Example 38A, (S)-5-benzyl-N-(2,4-dimethyl-5-oxo-5,6,7,8-tetrahydro-4H-thiazolo[4,5-b]azepin-6-yl)-4H-1,2,4-triazole-3-carboxamide], the IC50 in assay [1] and in assay [2] (TNFα 10 ng/mL) was 0.0001 to 1 µM throughout.

As for `CN1C(=O)[C@@H](NC(=O)c2cc(F)n(Cc3ccccc3)n2)COc2cccnc21` [Example 165, (S)-1-benzyl-5-fluoro-N-(5-methyl-4-oxo-2,3,4,5-tetrahydropyrido[3,2-b][1,4]oxazepin-3-yl)-1H-pyrazole-3-carboxamide], the IC50 in assay [1] and in assay [2] was 0.0001 to 1 µM each time.

For `C[C@H]1Oc2cccnc2N(C)C(=O)[C@H]1NC(=O)c1ncc(Cc2ccccc2)s1` [Example 124, 5-benzyl-N-((2R,3S)-2,5-dimethyl-4-oxo-2,3,4,5-tetrahydropyrido[3,2-b][1,4]oxazepin-3-yl)thiazole-2-carboxamide], the IC50 in assay [1] and in assay [2] (TNFα 10 ng/mL) was 0.0001 to 1 µM in each case.

Turning to `CN1C(=O)[C@@H](NC(=O)c2nnc(Cc3ccccc3)[nH]2)CCc2nn(C)cc21` [Example 105A, (S)-5-benzyl-N-(2,4-dimethyl-5-oxo-2,4,5,6,7,8-hexahydropyrazolo[4,3-b]azepin-6-yl)-4H-1,2,4-triazole-3-carboxamide], the IC50 in assay [1] and in assay [2] (TNFα 10 ng/mL) was 0.0001 to 1 µM each time.

For the compound `CN1C(=O)[C@@H](NC(=O)c2cn(Cc3ccccc3)nn2)COc2cccnc21` [Example 201, (S)-1-benzyl-N-(5-methyl-4-oxo-2,3,4,5-tetrahydropyrido[3,2-b][1,4]oxazepin-3-yl)-1H-1,2,3-triazole-4-carboxamide], the IC50 in assay [1] and in assay [2] (TNFα 10 ng/mL) was 0.0001 to 1 µM throughout.

Consider `CN1C(=O)[C@@H](NC(=O)c2cc(Oc3ccccc3F)cnn2)COc2cccnc21` [Example 149, (S)-5-(2-fluorophenoxy)-N-(5-methyl-4-oxo-2,3,4,5-tetrahydropyrido[3,2-b][1,4]oxazepin-3-yl)pyridazine-3-carboxamide], for which the IC50 in assay [1] and in assay [2] (TNFα 10 ng/mL) was 0.0001 to 1 µM in each case.

In the case of `CN1C(=O)[C@@H](NC(=O)c2cc(C#N)n(Cc3ccccc3)n2)COc2cccnc21` [Example 158, (S)-1-benzyl-5-cyano-N-(5-methyl-4-oxo-2,3,4,5-tetrahydropyrido[3,2-b][1,4]oxazepin-3-yl)-1H-pyrazole-3-carboxamide], the half-inhibitory concentration (IC50) in assay [1] and in assay [2] was 0.0001 to 1 µM throughout.

For the compound `C[C@H]1Oc2cccnc2N(C)C(=O)[C@H]1NC(=O)c1cc(Oc2ccccc2F)ccn1` [Example 117, N-((2R,3S)-2,5-dimethyl-4-oxo-2,3,4,5-tetrahydropyrido[3,2-b][1,4]oxazepin-3-yl)-4-(2-fluorophenoxy)picolinamide], the IC50 in assay [1] and in assay [2] (TNFα 10 ng/mL) was 0.0001 to 1 µM in each case.

As for `CN1C(=O)[C@@H](NC(=O)c2nnc(Cc3ccccc3)[nH]2)CC2(CC2)c2ccccc21` [Example 44, (S)-5-benzyl-N-(1-methyl-2-oxo-1,2,3,4-tetrahydrospiro[benzo[b]azepine-5,1′-cyclopropan]-3-yl)-4H-1,2,4-triazole-3-carboxamide], the IC50 in assay [1] and in assay [2] (TNFα 10 ng/mL) was 0.0001 to 1 µM throughout.

Turning to `CN1C(=O)C(NC(=O)c2nnc(Cc3ccccc3)[nH]2)CC(F)(F)c2ccccc21` (stereo not drawn) [Example 10, 5-benzyl-N-(5,5-difluoro-1-methyl-2-oxo-2,3,4,5-tetrahydro-1H-benzo[b]azepin-3-yl)-4H-1,2,4-triazole-3-carboxamide], the IC50 in assay [1] and in assay [2] (TNFα 10 ng/mL) was 0.0001 to 1 µM in each case.

With `CN1C(=O)[C@@H](NC(=O)c2nnc(C3(c4ccccc4)CC3)o2)CCc2nccnc21` [Example 180A, (S)—N-(5-methyl-6-oxo-6,7,8,9-tetrahydro-5H-pyrazino[2,3-b]azepin-7-yl)-5-(1-phenylcyclopropyl)-1,3,4-oxadiazole-2-carboxamide], the IC50 in assay [1] and in assay [2] (TNFα 10 ng/mL) was 0.0001 to 1 µM each time.
